Data: US20240209028A1, “CNP COMPOUNDS” (priority 2022, published 2024)
Starred links: 1 amine or outer side, 2 acyl side, 3 side chain; linkers in the order of their positions; H or OH if unused. Positions of bridges follow the written chain, without caps; N, C: chain ends. Residues, ends and D or L forms follow the SMILES beside them. *: point of attachment. C18 diacid = O=C(O)CCCCCCCCCCCCCCCCC(=O)*; γGlu = O=C(O)[C@H](CCC(=O)[*:2])N[*:1]; AEEA = NCCOCCOCC(=O)O

Target: T1, human natriuretic peptide receptor 2 (hNPR2) (Homo sapiens, UniProt P20594)
T1 construct: expressed in transfected cells; host or cells: HEK293 (ATCC CRL-1573), clone 35, co-transfected with pGloSensor-42F
T1 sequence (P20594 23-1047): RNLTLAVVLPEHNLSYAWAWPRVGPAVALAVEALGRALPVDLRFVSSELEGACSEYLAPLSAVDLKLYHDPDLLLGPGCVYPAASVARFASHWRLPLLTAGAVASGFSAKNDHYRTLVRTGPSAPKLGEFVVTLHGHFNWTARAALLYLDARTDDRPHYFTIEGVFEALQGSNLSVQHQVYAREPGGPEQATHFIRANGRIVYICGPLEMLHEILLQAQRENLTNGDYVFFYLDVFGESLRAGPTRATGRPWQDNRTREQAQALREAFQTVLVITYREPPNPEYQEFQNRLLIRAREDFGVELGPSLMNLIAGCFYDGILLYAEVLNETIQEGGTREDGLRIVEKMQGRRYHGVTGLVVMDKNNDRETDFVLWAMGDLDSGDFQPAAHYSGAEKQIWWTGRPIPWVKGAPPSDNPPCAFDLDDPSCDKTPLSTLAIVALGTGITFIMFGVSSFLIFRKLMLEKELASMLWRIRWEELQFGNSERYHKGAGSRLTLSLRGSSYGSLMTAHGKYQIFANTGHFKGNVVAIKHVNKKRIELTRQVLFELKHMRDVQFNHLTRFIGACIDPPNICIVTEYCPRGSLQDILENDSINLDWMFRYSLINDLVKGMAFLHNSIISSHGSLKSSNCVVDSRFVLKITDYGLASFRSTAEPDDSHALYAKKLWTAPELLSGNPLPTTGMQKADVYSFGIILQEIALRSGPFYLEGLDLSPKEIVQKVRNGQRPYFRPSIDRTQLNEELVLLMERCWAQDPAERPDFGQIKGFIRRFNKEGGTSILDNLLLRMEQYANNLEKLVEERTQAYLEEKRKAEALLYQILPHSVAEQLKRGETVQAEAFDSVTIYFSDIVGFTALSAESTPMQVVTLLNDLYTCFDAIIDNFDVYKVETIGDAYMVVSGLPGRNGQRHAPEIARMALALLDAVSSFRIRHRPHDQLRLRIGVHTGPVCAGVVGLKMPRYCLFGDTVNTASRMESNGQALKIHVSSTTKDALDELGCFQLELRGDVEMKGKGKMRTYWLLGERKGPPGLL
Assay: In vitro hNPR2 activity assay (cGMP GloSensor reporter, HEK293)
Assay type: cell-based
Details: for hNPR2 0% HSA. [EC50% rel CNP]: potency relative to CNP22 (0065); for EC50: 0% HSA, HEK293-hNPR2/GloSensor cells
Method in brief: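 Potency is the EC50 from a four-parameter logistic fit, also expressed relative to the in-plate CNP22 control (×100), with at least two replicates. Compounds (ten concentrations, […], HSA-free diluent with 1% OVA, 0.01% Tween20) were incubated 30 min at 37 °C on HEK293 cells co-expressing hNPR2 and a GloSensor cGMP luciferase. Luminescence detected with Bright-Glo.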

| SMILES | hNPR2 0% HSA. [EC50% rel CNP] [%] | EC50 [nM] |
| --- | --- | --- |
| CC[C@H](C)[C@@H]1NC(=O)[C@H](CCCNC(=N)N)NC(=O)[C@H](CC(=O)O)NC(=O)[C@H](CC(C)C)NC(=O)[C@@H]2CCCN2C(=O)[C@H](CC(C)C)NC(=O)CNC(=O)[C@H](Cc2ccccc2)NC(=O)[C@@H](NC(=O)CNC(=O)[C@H](CCCCN)NC(=O)[C@H](CO)NC(=O)[C@@H](NC(=O)CNC(=O)[C@@H](NC(=O)[C@H](CCCCN)NC(=O)[C@H](CCC(N)=O)NC(=O)[C@H](C)NC(=O)CNC(=O)[C@H](CCCCN)NC(=O)[C@H](Cc2ccc(O)cc2)NC(=O)[C@H](CCCCN)NC(=O)[C@H](CCCNC(=N)N)NC(=O)[C@H](C)NC(=O)COCCOCCNC(=O)COCCOCCNC(=O)CC[C@H](NC(=O)CC[C@H](NC(=O)CC[C@H](NC(=O)CC[C@H](NC(=O)CCCCCCCCCCCCCCCCC(=O)O)C(=O)O)C(=O)O)C(=O)O)C(=O)O)[C@@H](C)O)C(C)C)CSSC[C@@H](C(=O)O)NC(=O)CNC(=O)[C@H](CC(C)C)NC(=O)CNC(=O)[C@H](CO)NC(=O)[C@H](CC(C)C)NC(=O)[C@H](CO)NC(=O)CNC1=O [compound 1424] ({C18 diacid-γGlu-γGlu-γGlu-γGlu-AEEA-AEEA}-ARKYKGAQKTGVSKGCFGLPLDRIGSLSGLGC-OH; disulfide 16-32) | 36.2 | – |
| CC[C@H](C)[C@@H]1NC(=O)[C@H](CCCNC(=N)N)NC(=O)[C@H](CC(=O)O)NC(=O)[C@H](CC(C)C)NC(=O)[C@@H]2CCCN2C(=O)[C@H](CC(C)C)NC(=O)CNC(=O)[C@H](Cc2ccccc2)NC(=O)[C@@H](NC(=O)CNC(=O)[C@H](CO)NC(=O)[C@H](CO)NC(=O)[C@H](CC(C)C)NC(=O)CNC(=O)[C@H](CCC(=O)O)NC(=O)[C@H](CCCCN)NC(=O)[C@H](CCC(N)=O)NC(=O)[C@H](C)NC(=O)CNC(=O)[C@H](CCC(=O)O)NC(=O)COCCOCCNC(=O)COCCOCCNC(=O)CC[C@H](NC(=O)CCCCCCCCCCCCCCCCC(=O)O)C(=O)O)CSSC[C@@H](C(=O)O)NC(=O)CNC(=O)[C@H](CC(C)C)NC(=O)CNC(=O)[C@H](CO)NC(=O)[C@H](CC(C)C)NC(=O)[C@H](CO)NC(=O)CNC1=O [compound 1288] ({C18 diacid-γGlu-AEEA-AEEA}-EGAQKEGLSSGCFGLPLDRIGSLSGLGC-OH; disulfide 12-28) | 3.0 | – |
| CC[C@H](C)[C@@H]1NC(=O)[C@H](CCCNC(=N)N)NC(=O)[C@H](CC(=O)O)NC(=O)[C@H](CC(C)C)NC(=O)[C@H](CCCCN)NC(=O)[C@H](CC(C)C)NC(=O)CNC(=O)[C@H](Cc2ccccc2)NC(=O)[C@@H](NC(=O)CNC(=O)[C@H](CCCCN)NC(=O)[C@H](CO)NC(=O)[C@H](CC(C)C)NC(=O)CNC(=O)[C@H](CCCCN)NC(=O)[C@H](CCCCN)NC(=O)[C@H](CCC(N)=O)NC(=O)[C@H](C)NC(=O)CNC(=O)[C@H](CCCCN)NC(=O)[C@H](Cc2ccc(O)cc2)NC(=O)[C@H](CCCCN)NC(=O)[C@H](CCCNC(=N)N)NC(=O)[C@H](C)NC(=O)[C@H](CCC(N)=O)NC(=O)[C@@H]2CCCN2C(=O)[C@H](Cc2c[nH]cn2)NC(=O)[C@H](CCC(=O)O)NC(=O)[C@H](CCC(N)=O)NC(=O)COCCOCCNC(=O)COCCOCCNC(=O)CC[C@H](NC(=O)CC[C@H](NC(=O)CC[C@H](NC(=O)CC[C@H](NC(=O)CC[C@H](NC(=O)CC[C@H](NC(=O)CC[C@H](NC(=O)CC[C@H](NC(=O)CCCCCCCCCCCCCCCCC(=O)O)C(=O)O)C(=O)O)C(=O)O)C(=O)O)C(=O)O)C(=O)O)C(=O)O)C(=O)O)CSSC[C@@H](C(=O)O)NC(=O)CNC(=O)[C@H](CC(C)C)NC(=O)CNC(=O)[C@H](CO)NC(=O)[C@H](CC(C)C)NC(=O)[C@H](CO)NC(=O)CNC1=O [compound 1401] | 19.7 | 0.56 |
| CC[C@H](C)[C@@H]1NC(=O)[C@H](CCCNC(=N)N)NC(=O)[C@H](CC(=O)O)NC(=O)[C@H](CC(C)C)NC(=O)[C@@H]2CCCN2C(=O)[C@H](CC(C)C)NC(=O)CNC(=O)[C@H](Cc2ccccc2)NC(=O)[C@@H](NC(=O)CNC(=O)[C@H](CCC(N)=O)NC(=O)[C@H](CO)NC(=O)CNC(=O)CNC(=O)[C@H](CCCCN)NC(=O)[C@H](CCCCN)NC(=O)[C@H](CCC(N)=O)NC(=O)[C@H](C)NC(=O)CNC(=O)[C@H](CCCCN)NC(=O)[C@H](Cc2ccc(O)cc2)NC(=O)[C@H](CCCCN)NC(=O)[C@H](CCCNC(=N)N)NC(=O)[C@H](C)NC(=O)[C@H](CCC(N)=O)NC(=O)[C@@H]2CCCN2C(=O)[C@H](Cc2c[nH]cn2)NC(=O)[C@H](CCC(=O)O)NC(=O)[C@H](CCC(N)=O)NC(=O)COCCOCCNC(=O)COCCOCCNC(=O)CC[C@H](NC(=O)CC[C@H](NC(=O)CC[C@H](NC(=O)CC[C@H](NC(=O)CC[C@H](NC(=O)CC[C@H](NC(=O)CCCCCCCCCCCCCCCCC(=O)O)C(=O)O)C(=O)O)C(=O)O)C(=O)O)C(=O)O)C(=O)O)CSSC[C@@H](C(=O)O)NC(=O)CNC(=O)[C@H](CC(C)C)NC(=O)CNC(=O)[C@H](CO)NC(=O)[C@H](CC(C)C)NC(=O)[C@H](CO)NC(=O)CNC1=O [compound 1403] ({C18 diacid-γGlu-γGlu-γGlu-γGlu-γGlu-γGlu-AEEA-AEEA}-QEHPQARKYKGAQKKGGSQGCFGLPLDRIGSLSGLGC-OH; disulfide 21-37) | 87.1 | – |
| CC[C@H](C)[C@@H]1NC(=O)[C@H](CCCNC(=N)N)NC(=O)[C@H](CC(=O)O)NC(=O)[C@H](CC(C)C)NC(=O)[C@H](CCCCN)NC(=O)[C@H](CC(C)C)NC(=O)CNC(=O)[C@H](Cc2ccccc2)NC(=O)[C@@H](NC(=O)CNC(=O)[C@H](CCCCN)NC(=O)[C@H](CO)NC(=O)[C@H](CC(C)C)NC(=O)CNC(=O)[C@H](CCCCN)NC(=O)[C@H](CCCCN)NC(=O)[C@H](CCC(N)=O)NC(=O)[C@H](C)NC(=O)CNC(=O)[C@H](CCC(=O)O)NC(=O)[C@H](CCC(=O)O)NC(=O)COCCOCCNC(=O)COCCOCCNC(=O)CC[C@H](NC(=O)CCCCCCCCCCCCCCCCC(=O)O)C(=O)O)CSSC[C@@H](C(=O)O)NC(=O)CNC(=O)[C@H](CC(C)C)NC(=O)CNC(=O)[C@H](CO)NC(=O)[C@H](CC(C)C)NC(=O)[C@H](CO)NC(=O)CNC1=O [compound 1222] | 14.3 | 2.94 |
| CC[C@H](C)[C@@H]1NC(=O)[C@H](CCCNC(=N)N)NC(=O)[C@H](CC(=O)O)NC(=O)[C@H](CC(C)C)NC(=O)[C@@H]2CCCN2C(=O)[C@H](CC(C)C)NC(=O)CNC(=O)[C@H](Cc2ccccc2)NC(=O)[C@@H](NC(=O)CNC(=O)[C@H](CCC(N)=O)NC(=O)[C@H](CO)NC(=O)[C@H](CO)NC(=O)CNC(=O)[C@H](Cc2c[nH]cn2)NC(=O)[C@H](CCCCN)NC(=O)[C@H](CCC(N)=O)NC(=O)[C@H](C)NC(=O)CNC(=O)[C@H](Cc2c[nH]cn2)NC(=O)[C@H](Cc2ccc(O)cc2)NC(=O)[C@H](CCCCN)NC(=O)[C@H](Cc2c[nH]cn2)NC(=O)[C@H](C)NC(=O)[C@H](CCC(N)=O)NC(=O)[C@@H]2CCCN2C(=O)[C@H](Cc2c[nH]cn2)NC(=O)[C@H](CCC(=O)O)NC(=O)[C@H](CCC(N)=O)NC(=O)COCCOCCNC(=O)COCCOCCNC(=O)CC[C@H](NC(=O)CC[C@H](NC(=O)CCCCCCCCCCCCCCCCC(=O)O)C(=O)O)C(=O)O)CSSC[C@@H](C(=O)O)NC(=O)CNC(=O)[C@H](CC(C)C)NC(=O)CNC(=O)[C@H](CO)NC(=O)[C@H](CC(C)C)NC(=O)[C@H](CO)NC(=O)CNC1=O [compound 1383] ({C18 diacid-γGlu-γGlu-AEEA-AEEA}-QEHPQAHKYHGAQKHGSSQGCFGLPLDRIGSLSGLGC-OH; disulfide 21-37) | 43.1 | – |
| CC[C@H](C)[C@@H]1NC(=O)[C@H](CCCNC(=N)N)NC(=O)[C@H](CC(=O)O)NC(=O)[C@H](CC(C)C)NC(=O)[C@H](CCCCN)NC(=O)[C@H](CC(C)C)NC(=O)CNC(=O)[C@H](Cc2ccccc2)NC(=O)[C@@H](NC(=O)CNC(=O)[C@H](CCCCN)NC(=O)[C@H](CO)NC(=O)[C@H](CC(C)C)NC(=O)CNC(=O)[C@H](CCCCN)NC(=O)[C@H](CCC(=O)O)NC(=O)[C@H](CCC(N)=O)NC(=O)[C@H](C)NC(=O)CNC(=O)[C@H](CCC(=O)O)NC(=O)[C@H](Cc2ccc(O)cc2)NC(=O)COCCOCCNC(=O)COCCOCCNC(=O)CC[C@H](NC(=O)CCCCCCCCCCCCCCCCC(=O)O)C(=O)O)CSSC[C@@H](C(=O)O)NC(=O)CNC(=O)[C@H](CC(C)C)NC(=O)CNC(=O)[C@H](CO)NC(=O)[C@H](CC(C)C)NC(=O)[C@H](CO)NC(=O)CNC1=O [compound 1223] ({C18 diacid-γGlu-AEEA-AEEA}-YEGAQEKGLSKGCFGLKLDRIGSLSGLGC-OH; disulfide 13-29) | 6.77 | 1.05 |
